Source: patent publication US9657046B2, “Methods for the treatment and prevention of inflammatory diseases” (Children's Medical Center Corporation, priority 2010, dated 2017)

How the values were obtained:
human NKT cell lines = experiment: Human NKT cell lines, IFN-γ and IL-4 production; assay type: cell-based; settings: PI57 10 μg/ml, 48 hours in vitro
Protocol: (§1) In FIG. 7A, NKT cell lines were cocultured with BM-derived DCs (BMDCs) and α-GalCer (100 ng/ml), PI57 (10 μg/ml), or vehicle for 48 hours, with or without pre-incubation with anti-CD1d (10 μg/ml). IFN-γ was measured by ELISA. In FIG. 7B, murine NKT cell lines were cocultured as in 7A with BMDCs from WT, Cd1d^−/−, Myd88^−/−, or Trif^−/− mice. Cells were treated with α-GalCer (100 ng/ml), PI57 (2.5, 5, or 10 μg/ml), PBS30 (1, 2.5, or 5 μg/ml), or vehicle for 48 hours. IFN-γ and IL-4 were measured by ELISA. […] In FIG. 7D, mouse NKT cell lines were stained with PE-labeled CD1d tetramers of PI57 or α-GalCer at 4° C. for 45 minutes or 37° C. for 25 minutes, and with anti-TCRβ-APC antibody. Top: Lymphocytes were gated in the FSC/SSC window. Bottom: Percentage of CD1d tetramer+ cells. […] In FIG. 7G, CD1d Fc-coated Maxisorp plates were loaded with lipid and cultured with 5×10^4 NKT cells. IFN-γ was analyzed by ELISA after 24 hours. Data represent 3 or 5 independent experiments.
Human NKT cells were isolated from peripheral blood of normal volunteers, using a PE-conjugated anti-human NKT cell antibody (clone 6B11, which recognizes the CDR3 loop of the conserved Vα24 TCR found on iNKT cells) (BD Pharmingen) and anti-PE MACS beads (Miltenyi Biotec). Cells retained on the MACS column were then eluted. […]
Mouse or human IL-4 and IFN-γ levels were measured by ELISA, as previously described (20). […]

adult mice = experiment: Ozone-exposure model, pre-treatment of adult mice; assay type: in vivo, mouse; settings: pre-treatment prior to ozone-exposure
[1] = system: invariant Vα14 NKT cell hybridomas; experiment: Invariant Vα14 NKT cell hybridomas with glycolipid-loaded immobilized CD1d, IL-2; assay type: cell-based, mouse; settings: immobilized recombinant CD1d loaded with glycolipid; three hybridomas (RT2, RT23, RT24)
Protocol: as §1
NKT cell hybridomas were established from C57BL/6 thymic NKT cells by fusion with thymoma BW5147 as previously described (61).
Culture wells were coated with recombinant CD1/β2m dimer proteins (Becton Dickinson) according to the manufacture's protocols. […] Cytokines in the culture supernatants were determined by ELISA.

In the case of `CCCCCCCCCCCCCC(=O)OC[C@H]1O[C@H](O[C@H]2CC[C@@]3(C)C(=CC[C@H]4[C@@H]5CC[C@H]([C@H](C)CCCC(C)C)[C@@]5(C)CC[C@@H]43)C2)[C@H](O)[C@@H](O)[C@@H]1O` [PI57, Cholesteryl 6-O-tetradecanoyl-α-D-glucopyranoside], the “activation of human NKT cell lines (IFN-γ and IL-4 production)” value (human NKT cell lines) is reported as “activated”, the “airway hyperreactivity after ozone exposure” value (adult mice) is reported as “inhibit or suppress airway hyperreactivity” and the “lung inflammation after ozone exposure” value (adult mice) is reported as “inhibit or suppress airway hyperreactivity and lung inflammation”. For the same compound, the “IL-2 production by Vα14 NKT cell hybridomas” value [1] was “produced IL-2”.
